Assay results published in ChEMBL document CHEMBL4507326, “Data for DCP probe TP-030-2” (2021).

Experiments:
[1] = target: 5-hydroxytryptamine receptor 1A (Homo sapiens) (UniProt P08908); conditions: Compound concentration 10.0 uM
[2] = target: SRSF protein kinase 1 (Homo sapiens, UniProt Q96SB4); assay: SRPK1(SRP1IHRL) Takeda global kinase panel
[3] = target: LIM domain kinase 2 (Homo sapiens, UniProt P53671); assay: LIMK2(LIM2LGV1) Takeda global kinase panel
[4] = target: Serine/threonine-protein kinase Nek9 (Homo sapiens, UniProt Q8TD19); assay: Nek9(NEK9LGF1) Takeda global kinase panel
Serine/threonine-protein kinase Nek9, sequence (Q8TD19 whole entry): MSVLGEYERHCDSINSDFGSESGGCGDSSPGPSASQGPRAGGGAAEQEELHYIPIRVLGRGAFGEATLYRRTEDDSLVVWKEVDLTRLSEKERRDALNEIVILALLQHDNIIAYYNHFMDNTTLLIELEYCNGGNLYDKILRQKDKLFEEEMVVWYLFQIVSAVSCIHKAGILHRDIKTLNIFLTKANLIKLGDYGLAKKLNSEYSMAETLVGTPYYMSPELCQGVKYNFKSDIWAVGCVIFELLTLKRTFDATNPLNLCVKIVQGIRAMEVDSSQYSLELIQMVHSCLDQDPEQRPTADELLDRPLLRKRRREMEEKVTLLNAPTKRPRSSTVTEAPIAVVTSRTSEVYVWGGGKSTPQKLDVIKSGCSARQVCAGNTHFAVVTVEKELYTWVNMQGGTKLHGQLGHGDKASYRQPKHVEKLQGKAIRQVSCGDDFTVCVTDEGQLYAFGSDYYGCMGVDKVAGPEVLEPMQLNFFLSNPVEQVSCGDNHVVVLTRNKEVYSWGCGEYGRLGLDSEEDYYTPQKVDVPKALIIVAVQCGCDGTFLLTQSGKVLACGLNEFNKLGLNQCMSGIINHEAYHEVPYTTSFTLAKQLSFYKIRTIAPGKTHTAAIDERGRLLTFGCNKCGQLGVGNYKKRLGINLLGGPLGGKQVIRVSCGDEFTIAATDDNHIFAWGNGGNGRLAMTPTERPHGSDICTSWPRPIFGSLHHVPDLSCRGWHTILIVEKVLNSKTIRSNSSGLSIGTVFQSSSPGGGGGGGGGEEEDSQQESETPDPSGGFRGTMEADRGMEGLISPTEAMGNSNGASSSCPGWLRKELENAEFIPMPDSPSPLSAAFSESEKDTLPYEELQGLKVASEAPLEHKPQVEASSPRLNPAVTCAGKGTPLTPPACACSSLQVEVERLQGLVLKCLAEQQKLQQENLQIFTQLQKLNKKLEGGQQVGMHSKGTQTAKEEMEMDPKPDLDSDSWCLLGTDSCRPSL

[5] = target: GABA-A receptor; anion channel (Rattus norvegicus) (UniProt O09028+P15431+P18506+P18508+P19969+P20236+P23574+P23576+P28471+P28473+P30191+P62813+P63079+P63138+Q91ZM7+Q9ES14); conditions: Compound concentration 10.0 uM
[6] = target: Rhodopsin kinase GRK1 (Homo sapiens, UniProt Q15835); assay: RHODK [GRK1(GRK1LGA1)] Takeda global kinase panel
[7] = target: Serine/threonine-protein kinase 32B (Homo sapiens, UniProt Q9NY57); assay: YANK2(S32BLGY2) Takeda global kinase panel
[8] = target: Microtubule-associated serine/threonine-protein kinase 1 (Homo sapiens, UniProt Q9Y2H9); assay: MAST1(MAS1LGE5) Takeda global kinase panel
[9] = target: Gamma-aminobutyric acid type B receptor subunit 1 (Homo sapiens) (UniProt Q9UBS5); assay: Inhibition of GABAB1A at compound concentration of 10.0 uM in the Eurofins-Panlabs radioligand binding assay (Eurofins_assay_228610); design: ligand concentration 4 nM; conditions: Compound concentration 10.0 uM
[10] = target: Alpha-2A adrenergic receptor (Homo sapiens) (UniProt P08913); conditions: Compound concentration 10.0 uM
[11] = target: ATP-sensitive inward rectifier potassium channel 11 (Cricetulus griseus) (UniProt A0A3L7HHE1); assay: Inhibition of Potassium Channel [KATP] at 10 µM in the Eurofins-Panlabs radioligand binding assay (Eurofins_assay_265600); conditions: Cricetinae; Compound concentration 10.0 uM
[12] = target: 5-hydroxytryptamine receptor 2A (Homo sapiens, UniProt P28223); conditions: Compound concentration 10.0 uM
[13] = target: Estrogen receptor (Homo sapiens) (UniProt P03372); conditions: Compound concentration 10.0 uM
[14] = target: Wee1-like protein kinase 2 (Homo sapiens, UniProt P0C1S8); assay: Wee1B(WE1BLGF1) Takeda global kinase panel
[15] = target: Receptor-interacting serine/threonine-protein kinase 2 (Homo sapiens, UniProt O43353); assay: RIPK2(RIP2LGI1) Takeda global kinase panel
Receptor-interacting serine/threonine-protein kinase 2, sequence (O43353 whole entry): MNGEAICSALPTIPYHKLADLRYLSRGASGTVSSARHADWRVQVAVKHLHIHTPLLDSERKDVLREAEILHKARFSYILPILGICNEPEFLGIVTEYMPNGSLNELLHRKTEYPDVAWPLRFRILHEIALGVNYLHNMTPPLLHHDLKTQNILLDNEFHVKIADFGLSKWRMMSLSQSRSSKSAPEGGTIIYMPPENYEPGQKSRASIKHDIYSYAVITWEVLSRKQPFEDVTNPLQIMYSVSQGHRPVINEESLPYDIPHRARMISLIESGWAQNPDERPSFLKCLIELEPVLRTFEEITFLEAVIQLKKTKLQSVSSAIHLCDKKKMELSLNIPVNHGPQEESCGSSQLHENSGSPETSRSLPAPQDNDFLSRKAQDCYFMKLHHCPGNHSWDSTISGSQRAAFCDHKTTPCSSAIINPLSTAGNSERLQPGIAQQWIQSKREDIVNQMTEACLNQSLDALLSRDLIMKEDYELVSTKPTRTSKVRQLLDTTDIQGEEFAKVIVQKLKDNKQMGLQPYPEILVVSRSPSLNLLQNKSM

[16] = target: Glutamate NMDA receptor (Rattus norvegicus) (UniProt P35439+Q00959+Q00960+Q00961+Q62645+Q8VHN2+Q9R1M7); conditions: Compound concentration 10.0 uM
[17] = target: Cyclin-dependent kinase 2 (Homo sapiens, UniProt P24941); assay: CDK2(CDK2CGS1) Takeda global kinase panel
[18] = target: Tyrosine-protein kinase JAK3 (Homo sapiens, UniProt P52333); assay: JAK3(JAK3LGRG) Takeda global kinase panel
Tyrosine-protein kinase JAK3, sequence (P52333 whole entry): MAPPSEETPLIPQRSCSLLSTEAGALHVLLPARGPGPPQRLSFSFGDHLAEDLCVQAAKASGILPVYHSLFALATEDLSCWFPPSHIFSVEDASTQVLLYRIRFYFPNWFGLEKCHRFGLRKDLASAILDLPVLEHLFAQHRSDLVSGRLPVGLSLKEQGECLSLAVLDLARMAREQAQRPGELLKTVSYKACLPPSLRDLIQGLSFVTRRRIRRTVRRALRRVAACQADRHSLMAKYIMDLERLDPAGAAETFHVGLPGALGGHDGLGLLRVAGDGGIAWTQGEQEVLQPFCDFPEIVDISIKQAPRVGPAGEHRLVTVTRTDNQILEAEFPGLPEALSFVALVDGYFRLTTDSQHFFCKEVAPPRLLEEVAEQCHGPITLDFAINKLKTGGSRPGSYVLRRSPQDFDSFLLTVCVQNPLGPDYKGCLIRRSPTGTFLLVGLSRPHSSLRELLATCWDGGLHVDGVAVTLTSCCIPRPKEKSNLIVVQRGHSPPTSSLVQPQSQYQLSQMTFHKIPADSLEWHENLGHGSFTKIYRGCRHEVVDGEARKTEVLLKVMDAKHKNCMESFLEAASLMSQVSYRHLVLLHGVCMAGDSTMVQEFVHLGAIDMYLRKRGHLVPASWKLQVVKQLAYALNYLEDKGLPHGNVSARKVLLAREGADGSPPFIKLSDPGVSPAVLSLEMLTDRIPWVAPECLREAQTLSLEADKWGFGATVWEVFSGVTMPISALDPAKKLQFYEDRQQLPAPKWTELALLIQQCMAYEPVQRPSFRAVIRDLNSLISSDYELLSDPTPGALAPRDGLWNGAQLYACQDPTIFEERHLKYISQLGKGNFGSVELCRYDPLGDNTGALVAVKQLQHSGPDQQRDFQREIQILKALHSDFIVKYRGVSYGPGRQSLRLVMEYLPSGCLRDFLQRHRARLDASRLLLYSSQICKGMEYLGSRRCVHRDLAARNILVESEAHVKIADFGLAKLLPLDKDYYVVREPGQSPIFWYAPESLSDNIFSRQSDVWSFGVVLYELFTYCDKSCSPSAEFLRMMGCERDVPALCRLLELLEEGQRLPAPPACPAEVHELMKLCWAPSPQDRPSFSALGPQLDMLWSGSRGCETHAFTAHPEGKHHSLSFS

[19] = target: Myosin light chain kinase family member 4 (Homo sapiens, UniProt Q86YV6); assay: SgK085(SG85LGY1) Takeda global kinase panel
Myosin light chain kinase family member 4, sequence (Q86YV6 whole entry): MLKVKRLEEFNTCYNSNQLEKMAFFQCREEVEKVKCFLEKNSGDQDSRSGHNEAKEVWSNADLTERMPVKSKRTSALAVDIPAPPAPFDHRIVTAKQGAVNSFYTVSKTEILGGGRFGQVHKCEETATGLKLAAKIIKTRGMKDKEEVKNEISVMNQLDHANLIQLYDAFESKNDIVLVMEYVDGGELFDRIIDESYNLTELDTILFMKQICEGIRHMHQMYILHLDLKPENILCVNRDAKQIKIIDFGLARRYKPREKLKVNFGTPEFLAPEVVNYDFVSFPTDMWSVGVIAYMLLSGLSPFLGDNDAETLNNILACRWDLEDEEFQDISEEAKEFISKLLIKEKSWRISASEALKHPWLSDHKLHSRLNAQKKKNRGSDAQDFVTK

[20] = target: Alpha-1B adrenergic receptor (Homo sapiens) (UniProt P35368); assay: Adrenergic alpha1B Eurofins-Panlabs radioligand binding assay; design: ligand concentration 0.2 nM; conditions: Compound concentration 10.0 uM
Alpha-1B adrenergic receptor (Homo sapiens), sequence (P35368 whole entry): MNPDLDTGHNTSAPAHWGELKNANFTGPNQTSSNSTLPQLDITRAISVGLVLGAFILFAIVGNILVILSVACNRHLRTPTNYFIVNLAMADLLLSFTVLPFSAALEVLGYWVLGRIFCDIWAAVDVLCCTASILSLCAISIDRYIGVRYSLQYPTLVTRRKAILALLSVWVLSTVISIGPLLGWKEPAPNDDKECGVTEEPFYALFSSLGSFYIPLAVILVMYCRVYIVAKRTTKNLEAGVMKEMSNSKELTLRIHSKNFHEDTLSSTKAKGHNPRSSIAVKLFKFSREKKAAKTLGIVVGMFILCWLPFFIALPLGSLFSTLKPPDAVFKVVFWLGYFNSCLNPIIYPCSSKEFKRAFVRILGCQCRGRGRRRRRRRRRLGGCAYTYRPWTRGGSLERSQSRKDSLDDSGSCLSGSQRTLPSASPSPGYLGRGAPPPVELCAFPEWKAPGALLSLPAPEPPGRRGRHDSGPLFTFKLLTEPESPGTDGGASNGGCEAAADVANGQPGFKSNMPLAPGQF

[21] = target: Mu-type opioid receptor (Homo sapiens) (UniProt P35372); conditions: Compound concentration 10.0 uM
[22] = target: Muscarinic acetylcholine receptor M1 (Homo sapiens) (UniProt P11229); conditions: Compound concentration 10.0 uM
[23] = target: Interferon-induced, double-stranded RNA-activated protein kinase (Homo sapiens, UniProt P19525); assay: PKR(EIK2LGY1) Takeda global kinase panel
Interferon-induced, double-stranded RNA-activated protein kinase, sequence (P19525 whole entry): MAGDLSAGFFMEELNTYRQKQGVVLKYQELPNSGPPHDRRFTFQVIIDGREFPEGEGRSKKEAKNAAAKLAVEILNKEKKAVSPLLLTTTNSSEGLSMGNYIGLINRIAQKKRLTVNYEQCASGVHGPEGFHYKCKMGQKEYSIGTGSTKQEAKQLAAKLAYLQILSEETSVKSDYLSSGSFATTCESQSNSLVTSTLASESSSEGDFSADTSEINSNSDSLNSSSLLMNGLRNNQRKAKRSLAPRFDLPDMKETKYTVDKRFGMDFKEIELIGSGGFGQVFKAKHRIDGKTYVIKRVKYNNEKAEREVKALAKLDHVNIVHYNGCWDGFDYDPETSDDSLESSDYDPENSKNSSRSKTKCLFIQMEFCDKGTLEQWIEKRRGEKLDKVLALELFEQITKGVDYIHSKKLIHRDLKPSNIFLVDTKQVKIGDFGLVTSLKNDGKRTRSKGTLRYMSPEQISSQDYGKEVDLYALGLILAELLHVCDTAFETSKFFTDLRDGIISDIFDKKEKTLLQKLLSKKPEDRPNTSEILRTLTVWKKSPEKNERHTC

[24] = target: D(1A) dopamine receptor (Homo sapiens) (UniProt P21728); conditions: Compound concentration 10.0 uM
D(1A) dopamine receptor (Homo sapiens), sequence (P21728 whole entry): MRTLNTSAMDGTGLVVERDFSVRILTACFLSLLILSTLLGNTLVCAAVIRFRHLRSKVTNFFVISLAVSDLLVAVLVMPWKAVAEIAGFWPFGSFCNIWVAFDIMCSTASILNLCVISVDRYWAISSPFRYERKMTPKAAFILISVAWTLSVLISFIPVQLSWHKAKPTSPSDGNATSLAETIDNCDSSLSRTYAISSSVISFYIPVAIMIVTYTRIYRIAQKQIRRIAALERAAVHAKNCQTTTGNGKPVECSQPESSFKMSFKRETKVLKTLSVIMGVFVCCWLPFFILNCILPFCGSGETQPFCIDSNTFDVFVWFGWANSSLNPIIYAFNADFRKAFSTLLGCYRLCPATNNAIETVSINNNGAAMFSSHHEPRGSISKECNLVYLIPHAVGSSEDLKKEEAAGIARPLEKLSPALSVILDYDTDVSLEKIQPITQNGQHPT

[25] = target: Serine/threonine-protein kinase SIK1 (Homo sapiens, UniProt P57059); assay: SIK(SIK1LHY1) Takeda global kinase panel
[26] = target: Beta-2 adrenergic receptor (Homo sapiens) (UniProt P07550); conditions: Compound concentration 10.0 uM
[27] = target: Alpha-1A adrenergic receptor (Homo sapiens) (UniProt P35348); assay: Inhibition of Adrenergic alpha1A at compound concentration of 10.0 uM in the Eurofins-Panlabs radioligand binding assay (Eurofins_assay_203110); design: ligand concentration 0.25 nM; conditions: Rattus norvegicus; Compound concentration 10.0 uM
[28] = target: Beta-3 adrenergic receptor (Homo sapiens) (UniProt P13945); conditions: Compound concentration 10.0 uM
[29] = target: Phosphatidylinositol 4,5-bisphosphate 3-kinase catalytic subunit beta isoform (Homo sapiens, UniProt P42338); assay: PIK3CB(PI3BCGRK) Takeda global kinase panel
[30] = target: Maternal embryonic leucine zipper kinase (Homo sapiens, UniProt Q14680); assay: MELK(MELKLGF1) Takeda global kinase panel
[31] = target: Mixed lineage kinase domain-like protein (Homo sapiens, UniProt Q8NB16); assay: MLKL(MLKLPHY1) Takeda global kinase panel
[32] = target: Death-associated protein kinase 1 (Homo sapiens, UniProt P53355); assay: DAPK1(DAP1LGF1) Takeda global kinase panel
[33] = target: Cyclin-dependent kinase 14 (Homo sapiens, UniProt O94921); assay: PFTAIRE1(CD14CGS1) Takeda global kinase panel
[34] = target: 5'-AMP-activated protein kinase catalytic subunit alpha-2 (Homo sapiens, UniProt P54646); assay: AMPKalpha2(PRA2LGY1) Takeda global kinase panel
[35] = target: Serine/threonine-protein kinase/endoribonuclease IRE1 (Homo sapiens, UniProt O75460); assay: IRE1(ERN1PHY1) Takeda global kinase panel
[36] = target: Hormonally up-regulated neu tumor-associated kinase (Homo sapiens, UniProt P57058); assay: HUNK(HUNKLGRN) Takeda global kinase panel
[37] = target: Cyclin-dependent kinase 6 (Homo sapiens, UniProt Q00534); assay: CDK6(CDK6CGS1) Takeda global kinase panel
Cyclin-dependent kinase 6, sequence (Q00534 whole entry): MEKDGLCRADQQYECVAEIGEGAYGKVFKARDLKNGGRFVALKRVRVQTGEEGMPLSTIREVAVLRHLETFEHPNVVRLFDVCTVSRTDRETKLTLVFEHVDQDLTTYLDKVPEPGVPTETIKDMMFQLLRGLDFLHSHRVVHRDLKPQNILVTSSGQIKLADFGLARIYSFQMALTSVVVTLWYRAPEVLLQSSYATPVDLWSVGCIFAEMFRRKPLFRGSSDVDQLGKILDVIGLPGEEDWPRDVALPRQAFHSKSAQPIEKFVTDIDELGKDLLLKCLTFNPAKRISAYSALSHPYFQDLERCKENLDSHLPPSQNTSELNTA

[38] = target: Vascular endothelial growth factor receptor 2 (Homo sapiens, UniProt P35968); assay: KDR(KDR1CGY1) Takeda global kinase panel
[39] = target: Casein kinase I isoform alpha (Homo sapiens, UniProt P48729); assay: CK1alpha(C1A1PHY1) Takeda global kinase panel
[40] = target: Protein kinase C beta type (Homo sapiens, UniProt P05771); assay: PKCbeta(PRKBPHY3) Takeda global kinase panel
[41] = target: Cell division cycle 7-related protein kinase (Homo sapiens, UniProt O00311); assay: CDC7(CDC7CGP1) Takeda global kinase panel
[42] = target: SRSF protein kinase 2 (Homo sapiens, UniProt P78362); assay: SRPK2(SRP2IGRL) Takeda global kinase panel

CN1C(=O)[C@@H](N2CCc3c(nn(Cc4ccccc4)c3Br)C2=O)COc2ccccc21 [TP-030-2]
inhibition [1]: 16.9% | IC50 [2]: 1 µM | IC50 [3]: 1 µM | IC50 [4]: 1 µM | inhibition [5]: 24% | IC50 [6]: 1 µM | IC50 [7]: 1 µM | IC50 [8]: 1 µM | inhibition [9]: 1% | inhibition [10]: 68% | inhibition [11]: 14% | inhibition [12]: 50.6% | inhibition [13]: 10% | IC50 [14]: 1 µM | IC50 [15]: 1 µM | inhibition [16]: 6% | IC50 [17]: 1 µM | IC50 [18]: 1 µM | IC50 [19]: 1 µM | inhibition [20]: -2% | inhibition [21]: 27% | inhibition [22]: 21.6% | IC50 [23]: 1 µM | inhibition [24]: 16.1% | IC50 [25]: 1 µM | inhibition [26]: -4% | inhibition [27]: -7% | inhibition [28]: 39.3% | IC50 [29]: 1 µM | IC50 [30]: 1 µM | IC50 [31]: 1 µM | IC50 [32]: 1 µM | IC50 [33]: 1 µM | IC50 [34]: 1 µM | IC50 [35]: 1 µM | IC50 [36]: 1 µM | IC50 [37]: 1 µM | IC50 [38]: 1 µM | IC50 [39]: 1 µM | IC50 [40]: 1 µM | IC50 [41]: 1 µM | IC50 [42]: 1 µM
